# ChEMBL document CHEMBL5303304, “EUbOPEN Chemogenomics Library - IncuCyte” (2023)
# Key:
# Assay type in all cases: toxicity, cell-based
# [1] = tested on: U2OS; test: Incucyte cell viability with U2OS; settings: human, 10 µM, compound concentration 10 uM
# [2] = tested on: Fibroblast; test: Incucyte cell viability with human fibroblast; settings: 10 µM, compound concentration 10 uM
# [3] = tested on: HEK-293T; test: Incucyte cell viability with HEK293T; settings: human, 10 µM, compound concentration 10 uM
# Further: unitless GR value; below 1 slowed growth and below 0 cell loss.
SMILES,"Growth Rate ([1]; 0 h, replicate number 1)","Growth Rate ([1]; 0 h, replicate number 2)","Growth Rate ([1]; 12 h, replicate number 2)","Growth Rate ([1]; 24 h, replicate number 1)","Growth Rate ([1]; 24 h, replicate number 2)","Growth Rate ([2]; 0 h, replicate number 2)","Growth Rate ([2]; 6 h, replicate number 2)","Growth Rate ([2]; 12 h, replicate number 1)","Growth Rate ([2]; 12 h, replicate number 2)","Growth Rate ([2]; 18 h, replicate number 1)","Growth Rate ([3]; 6 h, replicate number 1)","Growth Rate ([3]; 18 h, replicate number 2)","Growth Rate ([1]; 12 h, replicate number 1)","Growth Rate ([3]; 6 h, replicate number 2)","Growth Rate ([3]; 12 h, replicate number 1)","Growth Rate ([3]; 12 h, replicate number 2)","Growth Rate ([3]; 18 h, replicate number 1)","Growth Rate ([1]; 18 h, replicate number 2)","Growth Rate ([3]; 24 h, replicate number 1)","Growth Rate ([3]; 24 h, replicate number 2)",further results
COc1ccc(-c2coc3cc(O)cc(O)c3c2=O)cc1 [BIOCHANIN],0.85,-0.91,0.77,0.95,0.93,-0.65,0.58,-0.08,0.69,0.21,0.75,1,–,–,–,–,–,–,–,–,"Growth Rate ([1]; 6 h, replicate number 1): 1; Growth Rate ([2]; 0 h, replicate number 1): 0.87; Growth Rate ([2]; 24 h, replicate number 2): 0.94; Growth Rate ([3]; 0 h, replicate number 2): 0.93"
CC[C@H](NC(=O)[C@H](C)NC)C(=O)N1C[C@@H](O)C[C@H]1Cc1c(-c2[nH]c3cc(F)ccc3c2C[C@@H]2C[C@H](O)CN2C(=O)[C@H](CC)NC(=O)[C@H](C)NC)[nH]c2cc(F)ccc12 [BIRINAPANT],0.94,–,–,–,–,-0.61,–,–,–,–,0.67,–,0.81,0.87,0.62,0.97,0.9,–,–,–,"Growth Rate ([1]; 18 h, replicate number 1): 0.98; Growth Rate ([2]; 0 h, replicate number 1): -0.44"
CC(C)(c1ccc(O)cc1)c1ccc(O)cc1 [BISPHENOL A],–,–,1,–,0.96,–,-0.05,0.37,0.83,–,0.82,–,–,–,–,–,–,–,–,–,"Growth Rate ([2]; 18 h, replicate number 2): 0.7; Growth Rate ([2]; 24 h, replicate number 1): 0.57"
CC(C)(C)c1cnc(CSc2cnc(NC(=O)C3CCNCC3)s2)o1 [BMS-387032],-1,0.54,0.05,0.05,-0.1,-0.8,-0.1,0.11,-0.28,0.32,-0.41,-0.48,0.45,-0.76,-0.29,-0.64,-0.21,0.04,-0.2,-0.37,"Growth Rate ([1]; 6 h, replicate number 1): 0.69; Growth Rate ([1]; 6 h, replicate number 2): 0.29; Growth Rate ([1]; 18 h, replicate number 1): 0.27; Growth Rate ([2]; 0 h, replicate number 1): -1; Growth Rate ([2]; 6 h, replicate number 1): 0.49; Growth Rate ([2]; 18 h, replicate number 2): -0.23; Growth Rate ([2]; 24 h, replicate number 1): 0.23; Growth Rate ([2]; 24 h, replicate number 2): -0.26"
CC(C)(O)c1cn(-c2ccc(-c3cccc(S(C)(=O)=O)c3)cc2)c(C(C)(C)c2ccccc2Cl)n1 [BMS-779788],–,0.31,0.79,–,0.7,–,0.64,0.66,0.55,0.36,–,0.87,–,0.58,0.97,0.93,0.81,0.76,0.9,0.92,"Growth Rate ([1]; 6 h, replicate number 2): 0.61; Growth Rate ([2]; 6 h, replicate number 1): -0.03; Growth Rate ([2]; 18 h, replicate number 2): 0.78; Growth Rate ([2]; 24 h, replicate number 1): 0.75; Growth Rate ([2]; 24 h, replicate number 2): 0.63; Growth Rate ([3]; 0 h, replicate number 1): -0.7"
NS(=O)(=O)c1cncc(-c2nc(NCc3ccccn3)c3c(-c4ccccc4)cccc3n2)c1 [BMS-919373],0.72,-0.7,0.71,–,0.63,-0.92,–,-1,–,0.34,0.01,0.22,0.98,0.33,0.64,0.24,0.69,0.59,1,0.26,–
Cc1c(-c2c(F)cc(C(N)=O)c3[nH]c4c(c23)CC[C@H](C(C)(C)O)C4)cccc1-n1c(=O)c2cccc(F)c2n(C)c1=O [BMS-986142],0.59,0.95,0.67,0.49,0.73,–,-0.9,0.08,0.19,0.54,-0.93,-0.59,0.52,-0.99,-0.7,-0.83,-0.43,0.66,-0.25,-0.39,"Growth Rate ([1]; 6 h, replicate number 1): 0.26; Growth Rate ([1]; 6 h, replicate number 2): 0.48; Growth Rate ([1]; 18 h, replicate number 1): 0.59; Growth Rate ([2]; 0 h, replicate number 1): -1; Growth Rate ([2]; 6 h, replicate number 1): -0.27; Growth Rate ([2]; 18 h, replicate number 2): 0.73; Growth Rate ([2]; 24 h, replicate number 1): 0.8; Growth Rate ([2]; 24 h, replicate number 2): 1"
O=C(N[C@@H]1C2CCN(CC2)[C@H]1Cc1cccnc1)c1cc2ccccc2o1 [BRADANICLINE],–,–,0.78,0.93,0.96,-0.99,–,-0.73,–,0.35,–,0.96,–,–,–,–,–,0.99,0.96,–,"Growth Rate ([1]; 6 h, replicate number 2): 0.66; Growth Rate ([2]; 24 h, replicate number 1): 0.82; Growth Rate ([3]; 0 h, replicate number 1): 0.69; Growth Rate ([3]; 0 h, replicate number 2): 0.79"
Nc1c(CC(=O)O)cccc1C(=O)c1ccc(Br)cc1 [BROMFENAC],0.27,–,0.95,0.74,0.95,-0.66,–,–,–,–,–,–,0.79,–,–,–,–,0.92,0.98,–,"Growth Rate ([1]; 6 h, replicate number 1): 0.2; Growth Rate ([1]; 18 h, replicate number 1): 0.86; Growth Rate ([3]; 0 h, replicate number 1): 0.43; Growth Rate ([3]; 0 h, replicate number 2): -0.53"
Cn1ncc(-c2nc(N[C@H]3CC[C@H](N)CC3)ncc2Cl)c1CC1CC1 [BTX-A51],–,–,–,–,0.74,-0.85,–,–,–,–,–,–,–,–,–,–,–,0.89,0.57,0.67,"Growth Rate ([2]; 0 h, replicate number 1): -0.32; Growth Rate ([3]; 0 h, replicate number 1): -0.79"
C=C1/C(=C\C=C2/CCC[C@]3(C)[C@@H]([C@H](C)CCCC(C)(C)O)CC[C@@H]23)C[C@@H](O)C[C@@H]1O [CALCITRIOL],-0.07,0.74,0.63,0.91,0.67,–,0.1,0.49,0.64,0.64,0.8,0.67,-0.16,0.4,0.61,0.7,0.44,0.67,0.53,0.55,"Growth Rate ([1]; 6 h, replicate number 1): 0.27; Growth Rate ([1]; 6 h, replicate number 2): 0.45; Growth Rate ([1]; 18 h, replicate number 1): 0.83; Growth Rate ([2]; 6 h, replicate number 1): 0.62; Growth Rate ([2]; 24 h, replicate number 1): 0.96; Growth Rate ([3]; 0 h, replicate number 2): -0.91"
Oc1cc2c(cc1O)CN(C(=S)NCCc1ccc(Cl)cc1)CCC2 [CAPSAZEPINE],–,-0.38,0.84,0.77,0.93,-0.78,-0.98,–,-0.04,-0.47,-0.22,0.51,0.86,-0.37,0.04,0.11,0.54,0.75,–,0.55,"Growth Rate ([1]; 6 h, replicate number 2): 0.57; Growth Rate ([1]; 18 h, replicate number 1): 0.88; Growth Rate ([2]; 18 h, replicate number 2): 0.44; Growth Rate ([2]; 24 h, replicate number 2): 0.57"
COC[C@H](O)Cn1c(=O)cnn(-c2ccc(Cl)c(C(=O)NCC3(O)CCCCCC3)c2)c1=O [CE-224535],-0.6,–,–,–,–,-1,–,-1,–,-0.48,0.55,–,–,–,–,–,–,–,–,–,"Growth Rate ([2]; 0 h, replicate number 1): -0.26; Growth Rate ([3]; 0 h, replicate number 2): 0.38"
Cc1cc(Nc2ncc(Cl)c(Nc3ccccc3S(=O)(=O)C(C)C)n2)c(OC(C)C)cc1C1CCNCC1 [CERITINIB],0.45,–,-0.82,-0.57,-0.61,–,-1,-1,-0.99,-0.92,-0.91,-0.35,-0.79,-0.87,-0.6,-0.49,-0.4,-0.68,-0.33,-0.26,"Growth Rate ([1]; 6 h, replicate number 1): -0.98; Growth Rate ([1]; 6 h, replicate number 2): -0.96; Growth Rate ([1]; 18 h, replicate number 1): -0.64; Growth Rate ([2]; 0 h, replicate number 1): -0.31; Growth Rate ([2]; 18 h, replicate number 2): -0.93; Growth Rate ([2]; 24 h, replicate number 1): -0.63; Growth Rate ([2]; 24 h, replicate number 2): -0.84"
